Assay results taken from patent publication US4745124A, “Orally effective anti-hypertensive agents” (priority 1983, dated 1988).
Where “and” joins values, the source holds several entries; their conditions need not be identical. Equal values may be shown once.

What was measured:
[1] = test system: pressor effects of angiotensin I; assay: oral effectiveness: blood pressure response to angiotensin I in anesthetized rats; type: in vivo, rat
Outline: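 Fasted rats under pentobarbital anesthesia (50-60 mg/kg i.p.), ventilated, with carotid arterial pressure recorded; i.v. angiotensin I (80 ng, 160 ng or 400 ng/kg) or angiotensin II (80 ng) challenges repeated at timed intervals after oral gavage of compound (2-20 mg/kg, 10 mg, 17 or 23 μmol/kg) in aqueous NaHCO3.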

[2] = target: T1, angiotensin converting enzyme (human urinary ACE) (Homo sapiens, UniProt P12821); assay: ACE activity assay, I50 (Example 216A); type: biochemical; conditions: human urinary ACE; Benzoyl-GlyHisLeu 1×10^-4 M; Hepes pH 8.0; 37° C; in vitro; read-out: I50
T1 construct: ACE purified from human urine; from tissue; host or cells: human urine (ultrafiltration and Sephacryl S-200, first eluting peak; prepared as in Ryan et al., Tissue and Cell 10, 555 (1978))
T1 sequence (P12821 30-1232 limits assumed): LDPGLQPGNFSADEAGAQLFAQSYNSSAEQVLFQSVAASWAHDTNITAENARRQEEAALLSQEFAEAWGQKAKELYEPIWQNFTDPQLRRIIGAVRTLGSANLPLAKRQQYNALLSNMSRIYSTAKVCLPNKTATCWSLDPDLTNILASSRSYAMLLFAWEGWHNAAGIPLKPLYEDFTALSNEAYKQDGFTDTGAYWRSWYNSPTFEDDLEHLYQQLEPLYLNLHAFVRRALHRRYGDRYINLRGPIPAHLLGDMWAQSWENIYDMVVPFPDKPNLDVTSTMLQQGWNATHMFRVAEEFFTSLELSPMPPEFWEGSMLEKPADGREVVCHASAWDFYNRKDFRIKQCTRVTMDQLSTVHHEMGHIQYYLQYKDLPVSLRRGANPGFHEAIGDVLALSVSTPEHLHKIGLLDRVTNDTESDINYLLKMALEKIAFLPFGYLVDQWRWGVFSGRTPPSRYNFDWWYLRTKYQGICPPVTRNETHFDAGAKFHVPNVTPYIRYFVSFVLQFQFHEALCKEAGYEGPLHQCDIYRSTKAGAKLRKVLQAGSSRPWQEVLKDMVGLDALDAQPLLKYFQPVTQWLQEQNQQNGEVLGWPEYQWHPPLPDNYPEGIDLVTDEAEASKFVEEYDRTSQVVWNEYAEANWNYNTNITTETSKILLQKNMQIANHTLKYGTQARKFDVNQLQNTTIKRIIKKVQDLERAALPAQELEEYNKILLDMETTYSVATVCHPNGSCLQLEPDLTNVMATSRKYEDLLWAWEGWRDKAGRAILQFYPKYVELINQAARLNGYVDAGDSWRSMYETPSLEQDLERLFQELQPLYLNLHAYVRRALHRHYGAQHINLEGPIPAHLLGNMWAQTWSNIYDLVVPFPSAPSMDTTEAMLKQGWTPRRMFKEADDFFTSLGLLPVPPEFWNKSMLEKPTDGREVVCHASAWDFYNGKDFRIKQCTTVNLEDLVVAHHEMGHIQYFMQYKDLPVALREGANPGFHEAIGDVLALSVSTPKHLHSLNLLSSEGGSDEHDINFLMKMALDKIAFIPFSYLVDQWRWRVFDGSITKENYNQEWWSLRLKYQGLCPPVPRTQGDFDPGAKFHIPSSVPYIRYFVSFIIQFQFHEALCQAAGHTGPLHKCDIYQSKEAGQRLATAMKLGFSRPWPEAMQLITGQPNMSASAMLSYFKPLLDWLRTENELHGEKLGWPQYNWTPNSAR

[3] = resistance of thioester compounds to alkaline hydrolysis; type: physicochemical
Text: Therefore the observed inhibitory effects cannot be accounted for by postulating spontaneous hydrolysis of the thioester bond to regenerate the free sulfhydryl group.

IC50 [2]: 40 nM and 10 nM
hydrolysis at pH 9.5 in 1M NaHCO3 ([3]; pH 9.5, 1M NaHCO3): not hydrolyzed
Structure (SMILES): C[C@H](CSC(=O)C(Cc1ccccc1)NC(=O)c1ccccc1)C(=O)N1CCC[C@H]1C(=O)O (stereo partly drawn) [Compound (I), 2-benzoylphenylalanylthio-2-D-methylpropanoyl-L-proline]
Blood Pressure Response to 80 ng of Angiotensin I ([1]; oral 2 mg/kg, 6 min, Rat 3): 111 % of control
Blood Pressure Response to 80 ng of Angiotensin I ([1]; oral 2 mg/kg, 12 min, Rat 3): 93 % of control
Blood Pressure Response to 80 ng of Angiotensin I ([1]; oral 2 mg/kg, 18 min, Rat 3): 81 % of control
Blood Pressure Response to 80 ng of Angiotensin I ([1]; oral 2 mg/kg, 24 min, Rat 3): 85 % of control
Blood Pressure Response to 80 ng of Angiotensin I ([1]; oral 2 mg/kg, 35 min, Rat 3): 56 % of control
Blood Pressure Response to 80 ng of Angiotensin I ([1]; oral 2 mg/kg, 58 min, Rat 3): 56 % of control
Blood Pressure Response to 80 ng of Angiotensin I ([1]; oral 2 mg/kg, 68 min, Rat 3): 52 % of control
Blood Pressure Response to 80 ng of Angiotensin I ([1]; oral 2 mg/kg, 88 min, Rat 3): 30 % of control
Blood Pressure Response to 80 ng of Angiotensin I ([1]; oral 2 mg/kg, 118 min, Rat 3): 37 % of control
Blood Pressure Response to 80 ng of Angiotensin I ([1]; oral 2 mg/kg, 138 min, Rat 3): 60 % of control
Blood Pressure Response to 80 ng of Angiotensin I ([1]; oral 2 mg/kg, 169 min, Rat 3): 37 % of control
Blood Pressure Response to 80 ng of Angiotensin I ([1]; oral 2 mg/kg, 185 min, Rat 3): 37 % of control
Blood Pressure Response to 80 ng of Angiotensin I ([1]; oral 2 mg/kg, 205 min, Rat 3): 44 % of control
Blood Pressure Response to 80 ng of Angiotensin I ([1]; oral 5 mg/kg, 6 min, Rat 2): 67 % of control
Blood Pressure Response to 80 ng of Angiotensin I ([1]; oral 5 mg/kg, 12 min, Rat 1): 41 % of control
Blood Pressure Response to 80 ng of Angiotensin I ([1]; oral 5 mg/kg, 12 min, Rat 2): 57 % of control
Blood Pressure Response to 80 ng of Angiotensin I ([1]; oral 5 mg/kg, 18 min, Rat 1): 36 % of control
Blood Pressure Response to 80 ng of Angiotensin I ([1]; oral 5 mg/kg, 24 min, Rat 2): 43 % of control
Blood Pressure Response to 80 ng of Angiotensin I ([1]; oral 5 mg/kg, 35 min, Rat 1): 23 % of control
Blood Pressure Response to 80 ng of Angiotensin I ([1]; oral 5 mg/kg, 35 min, Rat 2): 37 % of control
Blood Pressure Response to 80 ng of Angiotensin I ([1]; oral 5 mg/kg, 48 min, Rat 1): 18 % of control
Blood Pressure Response to 80 ng of Angiotensin I ([1]; oral 5 mg/kg, 48 min, Rat 2): 17 % of control
Blood Pressure Response to 80 ng of Angiotensin I ([1]; oral 5 mg/kg, 58 min, Rat 1): 23 % of control
Blood Pressure Response to 80 ng of Angiotensin I ([1]; oral 5 mg/kg, 58 min, Rat 2): 17 % of control
Blood Pressure Response to 80 ng of Angiotensin I ([1]; oral 5 mg/kg, 68 min, Rat 2): 20 % of control
Blood Pressure Response to 80 ng of Angiotensin I ([1]; oral 5 mg/kg, 78 min, Rat 2): 17 % of control
Blood Pressure Response to 80 ng of Angiotensin I ([1]; oral 5 mg/kg, 88 min, Rat 2): 13 % of control
Blood Pressure Response to 80 ng of Angiotensin I ([1]; oral 5 mg/kg, 118 min, Rat 1): 23 % of control
Blood Pressure Response to 80 ng of Angiotensin I ([1]; oral 5 mg/kg, 185 min, Rat 2): 27 % of control
Blood Pressure Response to 80 ng of Angiotensin I ([1]; oral 5 mg/kg, 205 min, Rat 2): 33 % of control
Blood Pressure Response to 80 ng of Angiotensin I ([1]; oral 5 mg/kg, 213 min, Rat 2): 33 % of control
Blood Pressure Response to 80 ng of Angiotensin I ([1]; oral 5 mg/kg, 226 min, Rat 2): 43 % of control
duration of drug action ([1]; oral, 2 or 5 mg/kg): > 226 min
resistance to alkaline hydrolysis [3]: surprisingly resistant to alkaline hydrolysis
